# According to US20190225650A1, “PEPTIDOMIMETIC MACROCYCLES AND USE THEREOF IN REGULATING HIF1ALPHA” (AILERON THERAPEUTICS, INC., priority 2013, published 2019):
# Bridge positions count the residues as written; N and C are the ends. Square brackets hold non-standard residues; d marks the D form. Peptide text beside a SMILES is read from it. S5 = C=CCCC[C@](C)(N)C(=O)O; Nle = CCCC[C@H](N)C(=O)O; Dap = NC[C@H](N)C(=O)O
# System: HRE-bla ME-180 cells
# Assay: Reporter gene assay (HRE-bla ME-180 HIF reporter, GeneBLAzer)
# Assay type: cell-based, human
# Conditions: for EC50: 24 hour normoxia
# Description: The following reagents were used:
# • DMEM+GutaMAX: (#10569044, Invitrogen) • Black clear bottom plates: (#3603, Costar) • HRE-bla-ME-180 cell line: (#K1644, Invitrogen) • Gene-Blazer reagent & protocol: (#K1096, Invitrogen) • Plate reader: Biotek Synergy 2 • Chetomin: (C9623, Sigma)
# 4 hours prior to experiment: HRE-bla ME-180 cells were seeded at a density of 20,000 cells/well in a volume of 180 μl in black clear bottom 96-well plates. 180 μl of assay medium was added to the cell-free control wells. Incubation was conducted at 37° C., 5% CO2 for 4 hours.
# Diluted chetomin was used as a positive control. Chetomin was diluted in 100% DMSO to a 10 mM stock concentration. A 1 mM stock of chetomin was prepared in 100% DMSO. Then the 1 mM chetomin stock was serially diluted in 1:4 in 100% DMSO. Finally, 50, 12.5, 3.125, 0.78, 0.2, 0.05 μM stock of chetomin in 5% DMSO/water were prepared by adding 114 μL water+6 μL chetomin in DMSO.
# Test peptides were diluted before use. The test peptides were diluted in 100% DMSO to a 10 mM stock concentration. Then each 10 mM peptide stock was diluted in 1:3 in 100% DMSO. Finally, 300, 100, 33.3, 11.1, 3.7, 1.2 μM stock of each peptide in 5% DMSO/water were prepared by adding 129.2 μL water+4 μL peptide in DMSO.
# 20 μl of peptide, chetomin dilution, or DMSO/water control were added to the appropriate wells of a plate to achieve 200 μL final volumes in 0.3% DMSO/media. The plate was first incubated for 18-20 hours in normoxia incubator (37° C. in humidified 5% CO2, 20% O2 atmosphere). Then the plate was transferred to hypoxia incubator for 24 hours (37° C. in humidified 5% CO2, 1% O2 atmosphere)
# 6× LiveBLAzer™-FRET B/G (CCF4-AM) Substrate Mixture was prepared according to CellSensor™ HRE-bla ME-180 Cell-based Assay Protocol (Invitrogen) and added into each well. Solution A (CCF4-AM) was reconstituted in DMSO to a working concentration of 1 mM, divided in aliquots, and stored at −20° C. The 6× LiveBLAzer-FRET B/G (CCF4-AM) Substrate mixture was prepared by mixing 6 μl of Solution A, 60 μl of Solution B, and 934 μl Solution C.
# The plates were removed from incubator and equilibrated to RT for a few minutes. Then 20 μl of 6× Substrate mixture was added to each well. The plates were then incubated at room temperature for 3 hr in the dark and read at 409 Ex/460Em and 409Ex/530Em using the “GeneBlazer-Tungsten with export” program on the Synergy 2.
# The average percentage of maximum inhibition was obtained by comparing the peptide treated cells (30 μM) to DMSO vehicle control treated cells. The results are shown in the columns “ME-180 HIF Reporter EC50 (μM) −24 hr normoxia” and “18 h Avg % max inhibition at top conc (HIF Rptr-24 hrsnormoxia) (μM)” of Table 6.
Compound,18 h Avg % max inhibition at top conc (HIF Rptr-24 hrs normoxia) (μM),EC50 [µM]
CCCC[C@H](NC(=O)[C@H](CC(C)C)NC(=O)[C@@H](NC(=O)[C@H](CCC(=O)O)NC(=O)[C@H](CCC(=O)O)NC(=O)[C@H](CN)NC(=O)[C@@H](NC(=O)[C@H](Cc1ccccc1)NC(C)=O)[C@@H](C)CC)C(C)C)C(=O)N[C@@]1(C)CCCC=CCCC[C@@](C)(C(=O)N[C@@H](CCCC)C(=O)N[C@@H](C)C(=O)N[C@@H](CC(C)C)C(=O)N[C@@H](CC(=O)O)C(=O)N[C@@H](CCCNC(=N)N)C(=O)N[C@H](C(N)=O)[C@@H](C)CC)NC(=O)[C@H]([C@@H](C)CC)NC(=O)[C@H](C(C)C)NC(=O)[C@H](CC(C)C)NC1=O [SP-62] (Ac-FI[Dap]EEVL[Nle][S5]LVI[S5][Nle]ALDRI-NH2; staple 9-13),++ (≤10 but <25: ++),> 30
CCCC[C@H](NC(=O)[C@H](CC(C)C)NC(=O)[C@@H](NC(=O)[C@H](CCC(=O)O)NC(=O)[C@H](CCC(=O)O)NC(=O)[C@H](CC(=O)O)NC(=O)[C@@H](NC(=O)[C@H](Cc1ccccc1)NC(C)=O)[C@@H](C)CC)C(C)C)C(=O)N[C@@]1(C)CCCC=CCCC[C@@](C)(C(=O)N[C@@H](CCCC)C(=O)N[C@@H](C)C(=O)N[C@@H](CC(C)C)C(=O)N[C@@H](CC(=O)O)C(=O)N[C@@H](CCC(=O)O)C(=O)N[C@H](C(N)=O)[C@@H](C)CC)NC(=O)[C@H]([C@@H](C)CC)NC(=O)[C@H](C(C)C)NC(=O)[C@H](CC(C)C)NC1=O [SP-41] (Ac-FIDEEVL[Nle][S5]LVI[S5][Nle]ALDEI-NH2; staple 9-13),++++ (≥50: ++++),15 to 30
CCCC[C@H](NC(=O)[C@H](CC(C)C)NC(=O)[C@@H](NC(=O)[C@H](CCC(=O)O)NC(=O)[C@H](CCC(=O)O)NC(=O)[C@H](CC(=O)O)NC(=O)[C@@H](NC(=O)[C@H](Cc1ccccc1)NC(C)=O)[C@@H](C)CC)C(C)C)C(=O)N[C@@]1(C)CCCC=CCCC[C@@](C)(C(=O)N[C@@H](CCCC)C(=O)N[C@@H](C)C(=O)N[C@@H](CC(C)C)C(=O)N[C@@H](CC(=O)O)C(=O)N[C@@H](CO)C(=O)N[C@H](C(N)=O)[C@@H](C)CC)NC(=O)[C@H]([C@@H](C)CC)NC(=O)[C@H](C(C)C)NC(=O)[C@H](CC(C)C)NC1=O [SP-58] (Ac-FIDEEVL[Nle][S5]LVI[S5][Nle]ALDSI-NH2; staple 9-13),+++ (≤25 but <50: +++),> 30
CC[C@H](C)[C@H](NC(=O)[C@H](CCCNC(=N)N)NC(=O)[C@H](CC(=O)O)NC(=O)[C@H](CC(C)C)NC(=O)CNC(=O)[C@H](CCSC)NC(=O)[C@]1(C)CCCC=CCCC[C@](C)(NC(=O)[C@H](CCSC)NC(=O)[C@H](CC(C)C)NC(=O)[C@@H](NC(=O)[C@H](CCC(=O)O)NC(=O)[C@H](CCC(=O)O)NC(=O)[C@H](CC(=O)O)NC(C)=O)C(C)C)C(=O)N[C@@H](CC(C)C)C(=O)N[C@@H](C(C)C)C(=O)N[C@@H]([C@@H](C)CC)C(=O)N1)C(=O)N[C@@H](CCCCN)C(=O)N[C@@H](CCC(=O)O)C(=O)N[C@@H](CC(C)C)C(=O)N1CCC[C@H]1C(=O)N[C@@H](CCC(=O)O)C(=O)N[C@@H](CC(C)C)C(=O)N[C@@H](Cc1c[nH]c2ccccc12)C(=O)N[C@@H](CC(C)C)C(N)=O [SP-87] (Ac-DEEVLM[S5]LVI[S5]MGLDRIKELPELWL-NH2; staple 7-11),++++ (≥50: ++++),15 to 30
CCCC[C@H](NC(=O)[C@H](CC(C)C)NC(=O)[C@@H](NC(=O)[C@H](CCC(=O)O)NC(=O)[C@H](CCC(=O)O)NC(=O)[C@H](CC(=O)O)NC(=O)[C@@H](NC(=O)[C@H](CCC(=O)O)NC(C)=O)[C@@H](C)CC)C(C)C)C(=O)N[C@@]1(C)CCCC=CCCC[C@@](C)(C(=O)N[C@@H](CCCC)C(=O)N[C@@H](C)C(=O)N[C@@H](CC(C)C)C(=O)N[C@@H](CC(=O)O)C(=O)N[C@@H](CCCNC(=N)N)C(=O)N[C@H](C(N)=O)[C@@H](C)CC)NC(=O)[C@H]([C@@H](C)CC)NC(=O)[C@H](C(C)C)NC(=O)[C@H](CC(C)C)NC1=O [SP-30] (Ac-EIDEEVL[Nle][S5]LVI[S5][Nle]ALDRI-NH2; staple 9-13),++ (≤10 but <25: ++),> 30
CCCC[C@H](NC(=O)[C@H](CC(C)C)NC(=O)[C@H](CN)NC(=O)[C@H](CCC(=O)O)NC(=O)[C@H](CCC(=O)O)NC(=O)[C@H](CC(=O)O)NC(=O)[C@@H](NC(=O)[C@H](Cc1ccccc1)NC(C)=O)[C@@H](C)CC)C(=O)N[C@@]1(C)CCCC=CCCC[C@@](C)(C(=O)N[C@@H](CCCC)C(=O)N[C@@H](C)C(=O)N[C@@H](CC(C)C)C(=O)N[C@@H](CC(=O)O)C(=O)N[C@@H](CCCNC(=N)N)C(=O)N[C@H](C(N)=O)[C@@H](C)CC)NC(=O)[C@H]([C@@H](C)CC)NC(=O)[C@H](C(C)C)NC(=O)[C@H](CC(C)C)NC1=O [SP-64] (Ac-FIDEE[Dap]L[Nle][S5]LVI[S5][Nle]ALDRI-NH2; staple 9-13),+ (<10: +),> 30
CCCC[C@H](NC(=O)[C@H](CC(C)C)NC(=O)[C@@H](NC(=O)[C@H](CCC(=O)O)NC(=O)[C@H](CCC(=O)O)NC(=O)[C@H](CC(=O)O)NC(=O)[C@@H](NC(=O)[C@H](Cc1ccccc1)NC(C)=O)[C@@H](C)CC)C(C)C)C(=O)N[C@@]1(C)CCCC=CCCC[C@@](C)(C(=O)N[C@@H](CCCC)C(=O)N[C@@H](CO)C(=O)N[C@@H](CC(C)C)C(=O)N[C@@H](CC(=O)O)C(=O)N[C@@H](CCCNC(=N)N)C(=O)N[C@H](C(N)=O)[C@@H](C)CC)NC(=O)[C@H]([C@@H](C)CC)NC(=O)[C@H](C(C)C)NC(=O)[C@H](CC(C)C)NC1=O [SP-55] (Ac-FIDEEVL[Nle][S5]LVI[S5][Nle]SLDRI-NH2; staple 9-13),++++ (≥50: ++++),5 to 15
CCCC[C@H](NC(=O)[C@H](CC(C)C)NC(=O)[C@@H](NC(=O)[C@H](CCC(=O)O)NC(=O)[C@H](CCC(=O)O)NC(=O)[C@H](CC(=O)O)NC(=O)[C@@H](NC(=O)[C@H](Cc1ccccc1)NC(C)=O)[C@@H](C)CC)C(C)C)C(=O)N[C@@]1(C)CCCC=CCCC[C@@](C)(C(=O)N[C@@H](CCCC)C(=O)N[C@@H](C)C(=O)N[C@@H](CC(C)C)C(=O)N[C@@H](CC(=O)O)C(=O)N[C@@H](CCCNC(=N)N)C(=O)N[C@H](C(N)=O)[C@@H](C)CC)NC(=O)[C@H]([C@@H](C)CC)NC(=O)[C@H](C)NC(=O)[C@H](CC(C)C)NC1=O [SP-18] (Ac-FIDEEVL[Nle][S5]LAI[S5][Nle]ALDRI-NH2; staple 9-13),++++ (≥50: ++++),5 to 15
CCCC[C@H](NC(=O)[C@H](CC(C)C)NC(=O)[C@@H](NC(=O)[C@H](CCC(=O)O)NC(=O)[C@H](CCC(=O)O)NC(=O)[C@H](CC(=O)O)NC(=O)[C@@H](NC(=O)[C@H](Cc1ccccc1)NC(C)=O)[C@@H](C)CC)C(C)C)C(=O)N[C@@]1(C)CCCC=CCCC[C@@](C)(C(=O)N[C@@H](CCCC)C(=O)N[C@@H](C)C(=O)N[C@@H](CC(C)C)C(=O)N[C@@H](CC(=O)O)C(=O)N[C@@H](CCCNC(=N)N)C(=O)N[C@H](C(N)=O)[C@@H](C)CC)NC(=O)[C@H]([C@@H](C)CC)NC(=O)[C@H](C(C)C)NC(=O)[C@H](CO)NC1=O [SP-51] (Ac-FIDEEVL[Nle][S5]SVI[S5][Nle]ALDRI-NH2; staple 9-13),+++ (≤25 but <50: +++),5 to 15
CCCC[C@H](NC(=O)[C@H](CC(C)C)NC(=O)[C@@H](NC(=O)[C@H](CCC(=O)O)NC(=O)[C@H](CCC(=O)O)NC(=O)[C@H](CC(=O)O)NC(=O)[C@@H](NC(=O)[C@H](CN)NC(C)=O)[C@@H](C)CC)C(C)C)C(=O)N[C@@]1(C)CCCC=CCCC[C@@](C)(C(=O)N[C@@H](CCCC)C(=O)N[C@@H](C)C(=O)N[C@@H](CC(C)C)C(=O)N[C@@H](CC(=O)O)C(=O)N[C@@H](CCCNC(=N)N)C(=O)N[C@H](C(N)=O)[C@@H](C)CC)NC(=O)[C@H]([C@@H](C)CC)NC(=O)[C@H](C(C)C)NC(=O)[C@H](CC(C)C)NC1=O [SP-61] (Ac-[Dap]IDEEVL[Nle][S5]LVI[S5][Nle]ALDRI-NH2; staple 9-13),+ (<10: +),> 30
